Where a name gives a salt, the structure may show the parent alone.
How the values were obtained:
[1] = system: normal plasma; experiment: Determination of prothrombin time (PT), human plasma; type: biochemical
Experimental: (§1) Determination of prothrombin time (PT)
(§2) Blood was taken from mouse, rat, crab-eating monkey and healthy human volunteers, and citric acid was added. The blood was centrifuged at 4° C. and 2000 G for 15 min to obtain normal plasma of various animals.
(§3) Purified water (5 μl) containing various concentrations of test compound was added to plasma (45 μl) and the resultant mixtures were used as samples. […] (Baxter) was prepared and heated at […] for 5 min, and a sample (50 μl) was admixed with the thrombin reagent (100 μl). The time (PT) until precipitation of fibrin was measured. The drug concentration that doubled the PT hours of the drug untreated group was calculated and taken as CT2.

[2] = system: decrease of platelets and formation of FDP by thromboplastin; experiment: Blood coagulation model in rat (thromboplastin); type: in vivo; conditions: i.v. 10 min before thromboplastin, mean ± S.D, n = 3; for PLT value: counted 10 min later; for FDP value: measured 30 min later
Experimental: Blood Coagulation Model in Rat
Intravenous administration of thromboplastin (Sigma) to rat promotes coagulation system, which in turn decreases platelets and increases fibrin degradation product (FDP). Thus, the test compound was intravenously administered 10 min before thromboplastin administration and the inhibitory effects of the test compound on the decrease of platelets and the formation of FDP by thromboplastin were studied. The thromboplastin administered had such concentration as to form clots within 20 seconds from the addition of one plasma dose to two thromboplastin doses and was administered in 1 ml/kg dose. Platelets were counted (PLT value) 10 min later on a blood cell counter sysmex F-800 [Dade International Inc. (USA)], and FDP was measured 30 min later using FDP latex reagent for serum [Teikoku Hormone Mfg. Co., Ltd. (Tokyo, Japan)]. In every Example, the PLT value of the thromboplastin untreated group was (106±13)×10^4 and the FDP value of this group was 0±0 μg/ml.

[3] = target: T1, Human FXa (Homo sapiens, UniProt P00742); experiment: Intravenous administration test in mouse, human FXa inhibitory activity in serum; type: in vivo; conditions: ICR mice, i.v., mean ± S.D., n = 3
T1 construct: Human FXa [Enzyme research Laboratories (USA)] enzyme; purchased Enzyme Research Laboratories (USA)
Experimental: Intravenous Administration Tests in Mouse
A test compound dissolved in physiological saline was intravenously administered to ICR mice (body weight 20-30 g, 4-6 weeks old) and the activity of the test compound was evaluated based on the human FXa inhibitory activity in serum as an indicator.
At 10, 30, 60, 120 min from the intravenous administration, blood was taken from the eye ground using a hematocrit tube. The blood was centrifuged at 9000 G for 5 min and the obtained serum was used for the determination.
(§4) Human FXa inhibitory activity was measured as follows. Human FXa [Enzyme research Laboratories (USA)] enzyme (40 μl, 0.5 U/ml) and a 4-fold diluted plasma sample (40 μl) were incubated in 0.1M Tris-0.2M NaCl buffer (pH 8.4) (40 μl) at 37° C. for 10 min. A synthetic substrate S-2222 (Daiichi Pure Chemical (Tokyo, Japan), 40 μl) adjusted to 0.8 mM was added and the mixture was incubated at 37° C. for 5 min. The reaction was stopped by addition of 60% acetic acid (40 μl) and absorbance at 405 nm was measured by Model 3550 (BIO-RAD). For the control, serum or plasma obtained prior to blood sampling was used for measurement. Human FXa inhibitory activity was calculated as inhibition percentage (%) against control.
Target sequence in this assay (P00742 235-488 limits assumed): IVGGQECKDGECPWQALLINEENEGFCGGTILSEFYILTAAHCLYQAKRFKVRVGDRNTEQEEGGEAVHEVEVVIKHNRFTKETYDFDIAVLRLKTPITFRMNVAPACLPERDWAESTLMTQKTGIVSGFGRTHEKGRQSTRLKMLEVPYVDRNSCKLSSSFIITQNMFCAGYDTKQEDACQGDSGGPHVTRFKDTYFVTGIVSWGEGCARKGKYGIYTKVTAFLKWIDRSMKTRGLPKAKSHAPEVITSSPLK
Target sequence in this assay (P00742 41-179 limits assumed): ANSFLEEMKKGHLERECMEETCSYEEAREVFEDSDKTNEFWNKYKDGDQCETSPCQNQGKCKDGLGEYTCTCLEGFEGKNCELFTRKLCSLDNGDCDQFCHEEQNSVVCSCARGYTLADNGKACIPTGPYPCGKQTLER

[4] = system: normal plasma; experiment: Determination of prothrombin time (PT), rat plasma; type: biochemical
Experimental: as §1, §2, §3

[5] = system: normal plasma; experiment: Determination of prothrombin time (PT), mouse plasma; type: biochemical
Experimental: as §1, §2, §3

[6] = target: T1, Human FXa; experiment: Oral administration test in mouse, human FXa inhibitory activity in serum; type: in vivo; conditions: ICR mice, mean ± S.D., n = 3
Experimental: as §4
Target sequence in this assay (P00742 235-488 limits assumed): as the sequence (P00742 235-488 limits assumed) above
Target sequence in this assay (P00742 41-179 limits assumed): as the sequence (P00742 41-179 limits assumed) above
Oral Administration Tests in Mouse
A test compound dissolved in distilled water was orally administered to ICR mice (body weight 20-30 g, 4-6 weeks old) and the activity of the test compound was evaluated based on the human FXa inhibitory activity in serum as an indicator.
At 30, 60, 120, 180 min from the oral administration, blood was taken from the eye ground using a hematocrit tube. The blood was centrifuged at 9000 G for 5 min and the obtained serum was used for the determination. Human FXa inhibitory activity was determined in the same manner as in the test by intravenous administration.

[7] = system: normal plasma; experiment: Determination of prothrombin time (PT), crab-eating monkey plasma; type: biochemical
Experimental: as §1, §2, §3

[8] = target: T2, Human FIIa (Homo sapiens, UniProt P00734); experiment: Determination of anti-factor IIa (FIIa) activity, synthetic substrate S-2238; type: biochemical; conditions: S-2238, 37° C., pH 8.4, read-out: Experimental Example 2: anti-FIIa activity, IC50
T2 construct: purchased Sigma

[9] = target: T1, Human FXa; experiment: Oral administration test in monkey, human FXa inhibitory activity in plasma; type: in vivo; conditions: crab-eating monkey, mean ± S.D., n = 3
Experimental: as §4
Target sequence in this assay (P00742 235-488 limits assumed): as the sequence (P00742 235-488 limits assumed) above
Target sequence in this assay (P00742 41-179 limits assumed): as the sequence (P00742 41-179 limits assumed) above
Oral Administration Tests in Monkey
A test compound dissolved in distilled water was orally administered to monkey (carb-eating monkey, body weight 3.5-4.5 kg) and the activity of the test compound was evaluated based on the human FXa inhibitory activity in plasma as an indicator.
(§5) At 30, 60, 120, 240, 480 min from the oral administration, blood was taken from the saphenous vein with the passage of time and the blood was centrifuged at 2000 G for 10 min. The obtained citric acid plasma was used for the determination. Human FXa inhibitory activity was determined in the same manner as in the test by intravenous administration.

[10] = target: T1, Human FXa; experiment: Intravenous administration test in monkey, human FXa inhibitory activity in plasma; type: in vivo; conditions: crab-eating monkey, i.v., mean ± S.D., n = 3
Experimental: as §4
Target sequence in this assay (P00742 235-488 limits assumed): as the sequence (P00742 235-488 limits assumed) above
Target sequence in this assay (P00742 41-179 limits assumed): as the sequence (P00742 41-179 limits assumed) above
Intravenous Administration Tests in Monkey
A test compound dissolved in physiological saline was intravenously administered to monkey (crab-eating monkey, body weight 3.5-4.5 kg) and the activity of the test compound was evaluated based on the human FXa inhibitory activity in plasma as an indicator.
as §5, with “At 10,” for “At”, “180” for “240, 480”, “intravenous” for “oral”, “using mouse.” for “by intravenous administration.”

[11] = target: T1, Human FXa; experiment: Determination of anti-factor Xa (FXa) activity, synthetic substrate S-2222; type: biochemical; conditions: S-2222, 37° C., pH 8.4, read-out: Experimental Example 1: anti-FXa activity, IC50
Experimental: Determination of Anti-factor Xa (FXa) Activity
Human FXa [Enzyme research Laboratories (USA)] enzyme (40 μl, 0.16U/ml) and test compounds (40 l) adjusted to various concentrations were incubated in 0.1M Tris (Tris-hydroxymethyl-aminomethane) buffer (pH 8.4) containing 0.2M sodium chloride (herein to be referred to as 0.1 M tris-0.2M NaCl buffer) (40 μl) at 37° C. for 10 min. A synthetic substrate S-2222 (Daiichi Pure Chemical (Tokyo, Japan), 40 μl) adjusted to 0.8 mM was added and the mixture was incubated at 37° C. for 10 min. The reaction was stopped by addition of 60% acetic acid (40 μl) and absorbance at 405 nm was measured by Model 3550 (BIO-RAD). For the control, the solvent was used instead of the test compound.
Target sequence in this assay (P00742 235-488 limits assumed): as the sequence (P00742 235-488 limits assumed) above
Target sequence in this assay (P00742 41-179 partner limits assumed): as the sequence (P00742 41-179 limits assumed) above

| Compound | CT2 (drug concentration that doubled the PT) [1] [µM] | PLT value ([2]; dose 0.1 mg/kg) | FDP value ([2]; dose 0.1 mg/kg) [µg/mL] | PLT value ([2]; dose 0.3 mg/kg) | FDP value ([2]; dose 0.3 mg/kg) [µg/mL] | inhibition at 1 mg/kg ([3]; 10 minutes) [%] | inhibition at 1 mg/kg ([3]; 30 minutes) [%] | inhibition at 1 mg/kg ([3]; 60 minutes) [%] | inhibition at 1 mg/kg ([3]; 120 minutes) [%] | CT2 (drug concentration that doubled the PT) [4] [µM] | CT2 (drug concentration that doubled the PT) [5] [µM] | inhibition at 10 mg/kg ([6]; 30 minutes) [%] | inhibition at 10 mg/kg ([6]; 60 minutes) [%] | inhibition at 10 mg/kg ([6]; 120 minutes) [%] | inhibition at 10 mg/kg ([6]; 180 minutes) [%] | CT2 (drug concentration that doubled the PT) [7] [µM] | IC50 [8] [µM] | further results |
| --- | --- | --- | --- | --- | --- | --- | --- | --- | --- | --- | --- | --- | --- | --- | --- | --- | --- | --- |
| CC(=N)N1CC[C@H](Oc2ccc([C@H](Cc3ccc4ccc(C(=N)N)cc4c3)C(=O)O)cc2)C1 [Comparative Example 1, (2S)-2-[4-[(3S)-1-acetimidoylpyrrolidin-3-yloxy]phenyl]-3-[7-amidinonaphthalen-2-yl]propionic acid hydrochloride pentahydrate, reference compound] | 2 | 67 ± 16 ×10^4 blood platelet/μl | 3 ± 2 | 100 ± 5 ×10^4 blood platelet/μl | 1 ± 1 | 43 ± 3 | 14 ± 2 | 0 | 1 ± 2 | 10 | 10 | 11 ± 4 | 6 ± 4 | 6 ± 4 | 6 ± 4 | 4 |  | PLT value ([2]; dose 0.03 mg/kg): 41 ± 9 ×10^4 blood platelet/μl; FDP value ([2]; dose 0.03 mg/kg): 9 ± 2 µg/mL |
| N=C(N)N1CCc2ccc(OCC3(C(=O)O)CCN(c4ccncc4)CC3)cc2C1 [Example 7, 4-(2-Amidino-1,2,3,4-tetrahydroisoquinolin-7-yloxymethyl)-1-(pyridin-4-yl)piperidine-4-carboxylic Acid Dihydrochloride] | 0.5 | 66 ± 21 ×10^4 blood platelet/μl | 7 ± 3 | 72 ± 10 ×10^4 blood platelet/μl | 4 ± 1 | 64 ± 2 | 54 ± 1 | 46 ± 4 | 30 ± 5 | 30 | 10 | 48 ± 7 | 40 ± 9 | 26 ± 7 | 18 ± 9 |  | > 10 | PLT value ([2]; dose 1 mg/kg): 96 ± 18 ×10^4 blood platelet/μl; FDP value ([2]; dose 1 mg/kg): 0 ± 0 µg/mL; inhibition at 3 mg/kg ([3]; 10 minutes): 82 ± 1%; inhibition at 3 mg/kg ([3]; 30 minutes): 78 ± 1%; inhibition at 3 mg/kg ([3]; 60 minutes): 72 ± 2%; inhibition at 3 mg/kg ([3]; 120 minutes): 59 ± 5% |
| N=C(N)N1CCc2ccc(OCC3(C(=O)O)CCN(c4ccncc4)CC3)cc2C1 [Example 9, 4-(2-Amidino-1,2,3,4-tetrahydroisoquinolin-7-yloxymethyl)-1-(pyridin-4-yl)piperidine-4-carboxylic Acid Hydrochloride] |  |  |  |  |  |  |  |  |  |  |  |  |  |  |  |  |  | inhibition at 10 mg/kg ([9]; 30 minutes): 28 ± 33%; inhibition at 10 mg/kg ([9]; 60 minutes): 37 ± 27%; inhibition at 10 mg/kg ([9]; 120 minutes): 46 ± 20%; inhibition at 10 mg/kg ([9]; 240 minutes): 49 ± 9%; inhibition at 10 mg/kg ([9]; 480 minutes): 23 ± 11%; inhibition at 1 mg/kg ([10]; 10 minutes): 82 ± 1%; inhibition at 1 mg/kg ([10]; 30 minutes): 72 ± 2%; inhibition at 1 mg/kg ([10]; 60 minutes): 58 ± 4%; inhibition at 1 mg/kg ([10]; 120 minutes): 41 ± 3%; inhibition at 1 mg/kg ([10]; 180 minutes): 29 ± 2% |
| CC(=N)N1CCC(Oc2ccc(N(Cc3nc4cc(C(=N)N)ccc4n3CC(=O)NC3CCCCC3)C(=O)c3ccc(C(=O)O)cc3)cc2)CC1 [Example 63, N-[5-Amidino-1-(cyclohexylcarbamoylmethyl)benzimidazol-2-ylmethyl]-N-[4-(1-acetimidoylpiperidin-4-yloxy)phenyl]carbamoylbenzoic Acid] |  |  |  |  |  | 55 ± 3 | 46 ± 5 | 16 ± 7 | 3 ± 6 |  |  | 22 ± 6 | 14 ± 9 | 12 ± 10 | 12 ± 4 |  | > 10 | IC50 [11]: 0.01 µM; inhibition at 0.3 mg/kg ([3]; 10 minutes): 32 ± 2%; inhibition at 0.3 mg/kg ([3]; 30 minutes): 16 ± 3%; inhibition at 0.3 mg/kg ([3]; 60 minutes): 4 ± 3%; inhibition at 0.3 mg/kg ([3]; 120 minutes): 1 ± 3% |
| N=C(N)N1CCc2ccc(OCC3(C(=O)O)CCN(c4ccncc4)CC3)cc2C1 [Example 67, 4-(2-Amidino-1,2,3,4-tetrahydroisoquinolin-7-yloxymethyl)-1-(pyridin-4-yl)piperidine-4-carboxylic Acid Methanesulfonate] |  |  |  |  |  |  |  |  |  |  |  |  |  |  |  | 5 |  |  |

— patent US6562828B1, “Amidine compounds” (Japan Tobacco Inc., priority 1998, dated 2003)
